Measurements reported in the NIST ThermoML archive (doi:10.1016/j.jct.2012.12.003).
“And” between values parts separate entries of the source, which are not always exact repeats. Equal values may be shown once.

What was measured:
[1] = xn = mol fraction of the nth substance listed; details: 101.3 kPa, Liquid, Vibrating tube method
[2] = 101.3 kPa, Liquid, Vibrating tube method

CCCCCCCCCO [nonan-1-ol] + CC(O)CO
mass density [kg/m3], [1]
Details | x2 = 0 | x2 = 0.1056 | x2 = 0.225 | x2 = 0.3433 | x2 = 0.3773 | x2 = 0.5551 | x2 = 0.6746 | x2 = 0.7695 | x2 = 0.7978 | x2 = 0.899
293.15 K | 827.667 | 836.639 | 848.601 | 862.671 | 867.271 | 895.783 | 920.803 | 945.697 | 953.952 | 989.338
298.15 K | 824.254 | 833.182 | 845.095 | 859.126 | 863.71 | 892.163 | 917.143 | 942.013 | 950.266 | 985.641
303.15 K | 820.815 | 829.698 | 841.567 | 855.554 | 860.127 | 888.513 | 913.452 | 938.296 | 946.543 | 981.914
308.15 K | 817.362 | 826.204 | 838.022 | 851.964 | 856.523 | 884.841 | 909.736 | 934.554 | 942.791 | 978.153
313.15 K | 813.885 | 822.685 | 834.458 | 848.353 | 852.901 | 881.148 | 906.002 | 930.783 | 939.015 | 974.358
318.15 K | 810.385 | 819.146 | 830.872 | 844.72 | 849.257 | 877.428 | 902.236 | 926.985 | 935.207 | 970.53

CC(O)CO (stereo not given) [1,2-propanediol]
[2]
Details | mass density
293.15 K | 1036.21 kg/m3 [middle of 4 runs]
298.15 K | 1032.55 kg/m3 [middle of 4 runs]
303.15 K | 1028.84 kg/m3 [middle of 4 runs]
308.15 K | 1025.09 kg/m3 and 1025.1 kg/m3 and 1025.05 kg/m3
313.15 K | 1021.28 kg/m3 and 1021.31 kg/m3
318.15 K | 1017.47 kg/m3 and 1017.49 kg/m3

CO [methanol]
[2]
Details | mass density [kg/m3]
293.15 K | 791.494
298.15 K | 786.794
303.15 K | 782.071
308.15 K | 777.326
313.15 K | 772.55
318.15 K | 767.744

CCCCCCO [hexan-1-ol] + CC(O)CO
[1], x2 = 0
Details | mass density [kg/m3]
293.15 K | 818.749
298.15 K | 815.188
303.15 K | 811.6
308.15 K | 807.984
313.15 K | 804.339
318.15 K | 800.657

CCCCCCCCCO [nonan-1-ol]
[2]
Details | mass density [kg/m3]
293.15 K | 827.667
298.15 K | 824.254
303.15 K | 820.815
308.15 K | 817.362
313.15 K | 813.885
318.15 K | 810.385

CC(O)CO (stereo not given) [1,2-propanediol] + CO
mass density [kg/m3], [1]
Details | x1 = 0.1008 | x1 = 0.1385 | x1 = 0.2582 | x1 = 0.3 | x1 = 0.4851 | x1 = 0.5476 | x1 = 0.6991 | x1 = 0.7595 | x1 = 0.8991 | x1 = 1
293.15 K | 838.277 | 853.548 | 895.155 | 908.078 | 954.527 | 967.74 | 995.074 | 1004.49 | 1024 | 1036.17
298.15 K | 833.79 | 849.127 | 890.917 | 903.893 | 950.534 | 963.799 | 991.242 | 1000.7 | 1020.29 | 1032.52
303.15 K | 829.274 | 844.68 | 886.644 | 899.676 | 946.507 | 959.825 | 987.37 | 996.862 | 1016.54 | 1028.83
308.15 K | 824.731 | 840.206 | 882.346 | 895.43 | 942.448 | 955.815 | 983.47 | 992.997 | 1012.75 | 1025.09
313.15 K | 820.164 | 835.7 | 878.013 | 891.151 | 938.356 | 951.772 | 979.532 | 989.094 | 1008.92 | 1021.31
318.15 K | 815.56 | 831.158 | 873.648 | 886.837 | 934.226 | 947.684 | 975.556 | 985.157 | 1005.05 | 1017.49

CC(O)CO (stereo not given) [1,2-propanediol] + CCCCCCO
mass density [kg/m3], [1]
Details | x1 = 0.1014 | x1 = 0.1998 | x1 = 0.2999 | x1 = 0.4003 | x1 = 0.4939 | x1 = 0.5996 | x1 = 0.6965 | x1 = 0.7989 | x1 = 0.9005 | x1 = 1
293.15 K | 831.496 | 845.231 | 860.667 | 877.818 | 895.533 | 917.945 | 941.028 | 968.795 | 1000.46 | 1036.21
298.15 K | 827.881 | 841.574 | 856.979 | 874.105 | 891.801 | 914.203 | 937.285 | 965.064 | 996.753 | 1032.55
303.15 K | 824.235 | 837.887 | 853.262 | 870.363 | 888.041 | 910.432 | 933.51 | 961.302 | 993.003 | 1028.84
308.15 K | 820.566 | 834.178 | 849.521 | 866.596 | 884.256 | 906.63 | 929.702 | 957.503 | 989.222 | 1025.09
313.15 K | 816.869 | 830.44 | 845.751 | 862.8 | 880.441 | 902.801 | 925.868 | 953.677 | 985.406 | 1021.31
318.15 K | 813.142 | 826.676 | 841.952 | 858.977 | 876.599 | 898.941 | 922.002 | 949.81 | 981.555 | 1017.49

CC(O)CO (stereo not given) [1,2-propanediol] + CCCO
mass density [kg/m3], [1]
Details | x1 = 0.1001 | x1 = 0.2 | x1 = 0.3001 | x1 = 0.3999 | x1 = 0.4999 | x1 = 0.6997 | x1 = 0.7998 | x1 = 0.9497 | x1 = 1
293.15 K | 827.101 | 850.504 | 873.567 | 897.361 | 920.615 | 967.056 | 990.126 | 1024.72 | 1036.13
298.15 K | 823.072 | 846.479 | 869.634 | 893.372 | 916.676 | 963.215 | 986.331 | 1021.04 | 1032.48
303.15 K | 819.008 | 842.415 | 865.603 | 889.385 | 912.697 | 959.329 | 982.502 | 1017.3 | 1028.78
308.15 K | 814.909 | 838.312 | 861.519 | 885.326 | 908.683 | 955.407 | 978.642 | 1013.52 | 1025.05
313.15 K | 810.77 | 834.174 | 857.399 | 881.264 | 904.631 | 951.451 | 974.743 | 1009.71 | 1021.28
318.15 K | 806.589 | 829.994 | 853.237 | 877.138 | 900.544 | 947.456 | 970.809 | 1005.86 | 1017.47

CO [methanol] + CC(O)CO
[1], x2 = 0
Details | mass density [kg/m3]
293.15 K | 791.494
298.15 K | 786.794
303.15 K | 782.071
308.15 K | 777.326
313.15 K | 772.55
318.15 K | 767.744

CCCCCCCCO [octan-1-ol] + CC(O)CO
[1], x2 = 0
Details | mass density [kg/m3]
293.15 K | 825.093
298.15 K | 821.647
303.15 K | 818.177
308.15 K | 814.686
313.15 K | 811.171
318.15 K | 807.629

CC(O)CO (stereo not given) [1,2-propanediol] + CCCCCCCCO
mass density [kg/m3], [1]
Details | x1 = 0.1028 | x1 = 0.1938 | x1 = 0.3029 | x1 = 0.3929 | x1 = 0.5181 | x1 = 0.6002 | x1 = 0.7012 | x1 = 0.8016 | x1 = 0.901 | x1 = 1
293.15 K | 834.904 | 844.743 | 858.314 | 871.118 | 892.06 | 908.213 | 931.472 | 959.327 | 993.344 | 1036.22
298.15 K | 831.409 | 841.209 | 854.74 | 867.513 | 888.414 | 904.545 | 927.781 | 955.627 | 989.648 | 1032.56
303.15 K | 827.891 | 837.652 | 851.144 | 863.884 | 884.743 | 900.85 | 924.062 | 951.891 | 985.914 | 1028.85
308.15 K | 824.351 | 834.08 | 847.528 | 860.235 | 881.051 | 897.13 | 920.315 | 948.124 | 982.15 | 1025.1
313.15 K | 820.793 | 830.481 | 843.885 | 856.562 | 877.332 | 893.39 | 916.543 | 944.333 | 978.349 | 1021.31
318.15 K | 817.208 | 826.859 | 840.223 | 852.864 | 873.592 | 889.619 | 912.743 | 940.506 | 974.513 | 1017.49

CCCO [propan-1-ol]
[2]
Details | mass density [kg/m3]
293.15 K | 803.527
298.15 K | 799.528
303.15 K | 795.493
308.15 K | 791.426
313.15 K | 787.32
318.15 K | 783.164

CCCO [propan-1-ol] + CC(O)CO
[1], x2 = 0
Details | mass density [kg/m3]
293.15 K | 803.527
298.15 K | 799.528
303.15 K | 795.493
308.15 K | 791.426
313.15 K | 787.32
318.15 K | 783.164

CCCCCCCCO [octan-1-ol]
[2]
Details | mass density [kg/m3]
293.15 K | 825.093
298.15 K | 821.647
303.15 K | 818.177
308.15 K | 814.686
313.15 K | 811.171
318.15 K | 807.629

CCCCCCO [hexan-1-ol]
[2]
Details | mass density [kg/m3]
293.15 K | 818.749
298.15 K | 815.188
303.15 K | 811.6
308.15 K | 807.984
313.15 K | 804.339
318.15 K | 800.657

CC(O)CO (stereo not given) [1,2-propanediol] + CCCCCCCCCO
[1], x1 = 1
Details | mass density [kg/m3]
293.15 K | 1036.17
298.15 K | 1032.52
303.15 K | 1028.83
308.15 K | 1025.09
313.15 K | 1021.31
318.15 K | 1017.49
